# According to patent publication US12655135B2, “Benzo seven-membered ring bifunctional compound and application thereof” (CHIA TAI TIANQING PHARMACEUTICAL GROUP CO., LTD., priority 2021, dated 2026):
# Target: T1, ERα (Homo sapiens, UniProt P03372)
# T1 construct: endogenous in cells; host or cells: MCF-7
# T1 sequence (P03372 1-595): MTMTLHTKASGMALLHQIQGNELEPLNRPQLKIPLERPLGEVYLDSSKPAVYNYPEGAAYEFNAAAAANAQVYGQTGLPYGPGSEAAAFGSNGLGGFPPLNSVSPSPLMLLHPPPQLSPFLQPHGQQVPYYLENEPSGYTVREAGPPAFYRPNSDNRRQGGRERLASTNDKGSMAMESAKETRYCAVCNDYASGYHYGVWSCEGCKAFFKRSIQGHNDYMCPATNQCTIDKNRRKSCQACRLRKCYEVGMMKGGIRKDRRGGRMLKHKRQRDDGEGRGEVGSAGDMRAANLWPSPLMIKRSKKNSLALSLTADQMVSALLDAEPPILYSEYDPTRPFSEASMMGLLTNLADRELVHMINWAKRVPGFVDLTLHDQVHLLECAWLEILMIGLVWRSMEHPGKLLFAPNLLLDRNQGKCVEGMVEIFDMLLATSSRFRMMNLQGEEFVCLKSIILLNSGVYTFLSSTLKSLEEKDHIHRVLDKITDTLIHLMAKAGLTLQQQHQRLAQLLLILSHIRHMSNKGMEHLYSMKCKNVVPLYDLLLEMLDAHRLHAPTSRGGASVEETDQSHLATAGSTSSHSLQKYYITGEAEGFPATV
# Assay: MCF-7 ERα degradation experiment (Human Total ERα ELISA, 4 h incubation)
# Type: cell-based
# Conditions: MCF-7 cells, 4 h incubation at 37° C., ERα by ELISA; Max well 100 nM FUL, Min well 0.5% DMSO; read-out: Degradation of ERα by compounds DC50
# Method: Experimental Example 1: MCF-7 ERα Degradation Experiment
# Compounds were tested for their ability to degrade ERα receptors under experimental conditions.
# Phenol red-free MEM medium was purchased from Wisent, fetal bovine serum was purchased from Biosera, and Human Total ERα/NR3A1 ELISA kits were purchased from R&D. MCF-7 cell line was purchased from the Cell Bank of Type Culture Collection Committee of the Chinese Academy of Sciences. Nivo5 multi-marker analyzer (PerkinElmer).
# • 1. MCF-7 cells were resuspended in medium (phenol red-free MEM+5% Charcoal Dextran Stripped FBS+1% PS), seeded in a 96-well clear cell culture plate, and incubated overnight in a carbon dioxide incubator; • 2. ELISA plate was coated with stripes, Human Total ERα Capture Antibody was diluted with 1×PBS, and the plate was incubated at 25° C. overnight. Day Two: • 1. Cell administration: The compounds to be tested were diluted to the 8th concentration. The concentration of the compound was 20 μM, and the compound was diluted successively to the 8th concentration of 0.256 nM at 4 μM. Two duplicate wells were set. The compound was transferred to the intermediate plate and then to the cell plate to give a final DMSO concentration of 0.5% per well, and the plate was incubated at 37° C. for 4 h; • 2. preparation of standard curve solution: 110 ng/mL of standard curve stock solution was 6-fold diluted with buffer #8 to give a solution with a concentration of 18.3 ng/mL. Then, 8-point gradient dilution was performed using buffer #3 with a final concentration of 200 pg/mL to 1.56 pg/mL; • 3. the ELISA plate was washed 3 times with a washing solution (1×PBS containing 0.05% Tween); • 4. 300 μL of blocking solution (1×PBS containing 1% BSA) was added to each well, and the plate was incubated at 25° C. for 2 h; • 5. 1×PBS was pre-cooled. After the incubation of the compound, the supernatant was removed, the plate was washed with pre-cooled 1×PBS, the cell lysate was added, and the cells were lysed on ice for 15 min; • 6. the blocking solution was removed from the ELISA plate, the plate was washed, and step 3 was repeated; • 7. after the cells were lysed, in the cell plate, the cell lysate was 6-fold diluted with 150 μL of buffer #8 per well, the mixture was pipetted and mixed well, and 100 μL of solution per well was transferred to the ELISA plate; • 8. at the same time, 100 μL of Standard per well was transferred to the ELISA plate and incubated overnight at 25° C. Day Three: • 1. The supernatant was removed, and the plate was washed 3 times with a washing solution; • 2. Human Total ERα Detection Antibody stock solution ([…]) was 36-fold diluted with buffer #1 (1×PBS containing 1% BSA), and the final concentration of Detection Antibody was 400 ng/mL. 100 μL/well of the solution was transferred to the ELISA plate, and the plate was incubated at 25° C. for 2 h; • 3. the plate was washed with buffer #1; • 4. Streptavidin-HRP A was 200-fold diluted with buffer #1 (1×PBS containing 1% BSA), 100 μL/well of the solution was transferred to the ELISA plate, and the plate was incubated at 25° C. for 20 min; • 5. the plate was washed with buffer #1; • 6. 100 μL of Substrate Solution per well (1:1 mixture of reagent A (H2O2) and reagent B (tetramethylbenzidine)) was added to the ELISA plate, and the plate was incubated at 25° C. for 20 min; • 7. […] of stop solution was added and the OD450 absorbance was read on a plate reader. Data Analysis: […]
row,Structure (SMILES),DC50
1,O=C1CCC(N2Cc3cc(N4CCN(CCCCCOc5ccc(C6=C(c7ccccc7)CCCc7cc(O)ccc76)cc5)CC4)ccc3C2=O)C(=O)N1 (centres unmarked) [Compound 1],0.84 nM
2,O=C1CCC(N2Cc3cc(N4CCN(CC5CCN(c6ccc(C7=C(c8ccccc8)CCCc8cc(O)ccc87)cc6)CC5)CC4)ccc3C2=O)C(=O)N1 (centres unmarked) [Compound 2],2.69 nM
3,O=C1CCC(N2Cc3cc(N4CCN(CC5CCN(c6ccc(C7=C(c8ccc(Cl)cc8Cl)CCCc8cc(C(=O)O)ccc87)cc6)CC5)CC4)ccc3C2=O)C(=O)N1 (centres unmarked) [Compound 3],5.8 nM
4,O=C1CC[C@H](N2Cc3cc(N4CCN(CCC5CCN(c6ccc(C7=C(c8ccccc8)CCCc8cc(O)ccc87)cc6)CC5)CC4)ccc3C2=O)C(=O)N1 [Compound 4],1.5 nM
5,O=C1CC[C@H](N2Cc3cc(N4CCN(CC5CCN(c6ccc(C7=C(c8ccc(Cl)cc8)CCCc8cc(O)ccc87)cc6)CC5)CC4)ccc3C2=O)C(=O)N1 [Compound 5],1.8 nM
6,O=C1CC[C@H](N2Cc3cc(N4CCN(CC5CCN(c6ccc(C7=C(c8ccc(F)cc8)CCCc8cc(O)ccc87)cc6)CC5)CC4)ccc3C2=O)C(=O)N1 [Compound 6],1 nM
7,COc1ccc2c(c1)CCCC(c1ccccc1)=C2c1ccc(N2CCC(CN3CCN(c4ccc5c(c4)CN([C@H]4CCC(=O)NC4=O)C5=O)CC3)CC2)cc1 [Compound 7],8 nM
8,COc1ccc2c(c1)CCCC(c1ccc(F)cc1)=C2c1ccc(N2CCC(CN3CCN(c4ccc5c(c4)CN([C@H]4CCC(=O)NC4=O)C5=O)CC3)CC2)cc1 [Compound 8],8.3 nM
9,O=C1CC[C@H](N2Cc3cc(N4CCN(CC5CCN(c6ccc(C7=C(c8ccc(O)cc8)CCCc8cc(O)ccc87)cc6)CC5)CC4)ccc3C2=O)C(=O)N1 [Compound 9],0.4 nM
10,COc1ccc2c(c1)OCCC(c1ccccc1)=C2c1ccc(N2CCC(CN3CCN(c4ccc5c(c4)CN([C@H]4CCC(=O)NC4=O)C5=O)CC3)CC2)cc1 [Compound 10],5.7 nM
11,Cc1ccc(C2=C(c3ccc(N4CCC(CN5CCN(c6ccc7c(c6)CN([C@H]6CCC(=O)NC6=O)C7=O)CC5)CC4)cc3)c3ccc(O)cc3CCC2)cc1 [Compound 11],1 nM
12,O=C1CC[C@H](N2Cc3cc(N4CCN(CC5CCN(c6ccc(C7=C(c8ccccc8)CCCc8cc(C(=O)O)ccc87)cc6)CC5)CC4)ccc3C2=O)C(=O)N1 [Compound 12],4.73 nM
13,O=C1CC[C@H](N2Cc3cc(N4CCN(CCC5CCN(c6ccc(C7=C(c8ccccc8)CCCc8cc(C(=O)O)ccc87)cc6)CC5)CC4)ccc3C2=O)C(=O)N1 [Compound 13],4.47 nM
14,O=C1CC[C@H](N2Cc3cc(N4CCN(CC5CCN(c6ccc(C7=C(c8ccccc8)CCCc8cc(O)ccc87)cc6)CC5)CC4)ccc3C2=O)C(=O)N1 [Compound 14],1.1 nM
15,O=C1CC[C@H](N2Cc3cc(N4CCN(CC5CCN(c6ccc(C7=C(c8ccc(C(F)(F)F)nc8)CCCc8cc(O)ccc87)cc6)CC5)CC4)ccc3C2=O)C(=O)N1 [Compound 15],1.7 nM
16,Cc1ccc(C2=C(c3ccc(N4CCC(CN5CCN(c6ccc7c(c6)CN([C@H]6CCC(=O)NC6=O)C7=O)CC5)CC4)cc3)c3ccc(O)cc3CCC2)cn1 [Compound 16],7.7 nM
17,O=C1CC[C@H](N2Cc3cc(N4CCN(CC5CCN(c6ccc(C7=C(c8ccc(C9CC9)nc8)CCCc8cc(O)ccc87)cc6)CC5)CC4)ccc3C2=O)C(=O)N1 [Compound 17],9.4 nM
18,Cc1nn(C)cc1C1=C(c2ccc(N3CCC(CN4CCN(c5ccc6c(c5)CN([C@H]5CCC(=O)NC5=O)C6=O)CC4)CC3)cc2)c2ccc(O)cc2CCC1 [Compound 18],4.6 nM
19,O=C1CC[C@H](N2Cc3cc(N4CCN(CC5CCN(c6ccc(C7=C(c8ccc(F)nc8)CCCc8cc(O)ccc87)cc6)CC5)CC4)ccc3C2=O)C(=O)N1 [Compound 19],2.1 nM
20,O=C1CC[C@H](N2Cc3cc(N4CCN(CC5CCN(c6ccc(C7=C(c8ccncc8)CCCc8cc(O)ccc87)cc6)CC5)CC4)ccc3C2=O)C(=O)N1 [Compound 20],0.9 nM
21,O=C1CC[C@H](N2Cc3cc(N4CCN(CC5CCN(c6ccc(C7=C(c8cccnc8)CCCc8cc(O)ccc87)cc6)CC5)CC4)ccc3C2=O)C(=O)N1 [Compound 21],1.9 nM
22,Cc1ccc(C2=C(c3ccc(N4CCC(CN5CCN(c6ccc7c(c6)CN([C@H]6CCC(=O)NC6=O)C7=O)CC5)CC4)cc3)c3ccc(O)cc3CCC2)c(C)n1 [Compound 22],2.4 nM
23,CC(C)(O)c1ccc(C2=C(c3ccc(N4CCC(CN5CCN(c6ccc7c(c6)CN([C@H]6CCC(=O)NC6=O)C7=O)CC5)CC4)cc3)c3ccc(O)cc3CCC2)cn1 [Compound 23],1.4 nM
24,O=C1CC[C@H](N2Cc3cc(N4CCN(CC5CCN(c6ccc(C7=C(c8ccc(OC(F)F)cc8)CCCc8cc(O)ccc87)cc6)CC5)CC4)ccc3C2=O)C(=O)N1 [Compound 24],0.7 nM
25,O=C1CC[C@H](N2Cc3cc(N4CCN(CC5CCN(c6ccc(C7=C(c8ccc(OC(F)(F)F)cc8)CCCc8cc(O)ccc87)cc6)CC5)CC4)ccc3C2=O)C(=O)N1 [Compound 25],5.7 nM
26,O=C1CC[C@H](N2Cc3cc(N4CCN(CC5CCN(c6ccc(C7=C(c8ccc(OC9CC9)cc8)CCCc8cc(O)ccc87)cc6)CC5)CC4)ccc3C2=O)C(=O)N1 [Compound 26],1.7 nM
